Laboratory results taken from ChEMBL document CHEMBL4665663, “Anti-atherosclerosis effect of HS donors based on nicotinic acid and chlorfibrate structures” (Bioorg Med Chem, 2019).
The source made the active and inactive calls. No cut-off for these calls is given here.

Columns and labels:
RAW264.7 [1] = experiment: Antioxidant activity in mouse RAW264.7 cells assessed as reduction in ox-LDL induced oxidative stress by measuring decrease in MDA level at 10 to 50 uM preincubated for 10 mins followed by ox-LDL stimulation and measured after 24 hrs; assay type: functional, cell-based; details: dose microM 10-50, time 10.0 min
RAW264.7 [2] = experiment: Antioxidant activity in mouse RAW264.7 cells assessed as reduction in ox-LDL induced oxidative stress by measuring increase in SOD level at 10 to 50 uM preincubated for 10 mins followed by ox-LDL stimulation and measured after 24 hrs; assay type: functional, cell-based; details: dose microM 10-50, time 10.0 min
RAW264.7 [3] = experiment: Antioxidant activity in mouse RAW264.7 cells assessed as reduction in ox-LDL induced ROS accumulation at 10 uM preincubated for 10 mins followed by ox-LDL stimulation and measured after 24 hrs by DCFH-DA staining based fluorescence microscopic analysis; assay type: functional, cell-based
RAW264.7 [4] = experiment: Inhibition of macrophage foam cell formation in mouse RAW264.7 cells assessed as reduction in ox-LDL induced red lipid droplets formation at 10 uM preincubated for 10 mins followed by ox-LDL stimulation and measured after 24 hrs by oil red O staining based inverted microscopy analysis; assay type: functional
RAW264.7 [5] = experiment: Anti-inflammatory activity in mouse RAW264.7 cells assessed as decrease in ox-LDL induced inflammatory reaction by measuring decrease in TNF-alpha production at 10 to 50 uM preincubated for 10 mins followed by ox-LDL stimulation and measured after 24 hrs; assay type: functional, cell-based; details: dose microM 10-50, time 10.0 min
RAW264.7 [6] = experiment: Anti-atherosclerotic activity in mouse RAW264.7 cells assessed as decrease in ox-LDL induced intracellular lipid accumulation by measuring reduction in free cholesterol level at 10 to 50 uM preincubated for 10 mins followed by ox-LDL stimulation and measured after 24 hrs by colorimetric method; assay type: functional, cell-based; details: dose microM 10-50, time 10.0 min
RAW264.7 [7] = experiment: Anti-inflammatory activity in mouse RAW264.7 cells assessed as decrease in ox-LDL induced inflammatory reaction by measuring increase in IL-10 production at 10 to 50 uM preincubated for 10 mins followed by ox-LDL stimulation and measured after 24 hrs; assay type: functional, cell-based; details: dose microM 10-50, time 10.0 min
RAW264.7 [8] = experiment: Anti-atherosclerotic activity in mouse RAW264.7 cells assessed as decrease in ox-LDL induced intracellular lipid accumulation by measuring reduction in total cholesterol level at 10 to 50 uM preincubated for 10 mins followed by ox-LDL stimulation and measured after 24 hrs by colorimetric method; assay type: functional, cell-based; details: dose microM 10-50, time 10.0 min
WI-38 = experiment: Cytotoxicity against human WI38 cells assessed as reduction in cell viability after 48 hrs by MTT assay; assay type: cell-based; details: WI-38, 48 h
HUVEC [9] = experiment: Anti-atherosclerotic activity against ox-LDL induced cell damage in human HUVEC cells assessed as reduction in early apoptotic cells by measuring increase in mitochondrial membrane potential preincubated for 10 mins followed by ox-LDL stimulation and measured after 24 hrs by JC-1 staining based fluorescence microscopic analysis; assay type: functional
HUVEC [10] = experiment: Anti-atherosclerotic activity against ox-LDL induced apoptosis in human HUVEC cells assessed as reduction in caspase-3 expression at 10 to 50 uM preincubated for 10 mins followed by ox-LDL stimulation and measured after 24 hrs by ELISA; assay type: functional, cell-based; details: dose microM 10-50, time 10.0 min
HUVEC [11] = experiment: Anti-atherosclerotic activity against ox-LDL induced apoptosis in human HUVEC cells assessed as increase in bcl-2 expression at 50 uM preincubated for 10 mins followed by ox-LDL stimulation and measured after 24 hrs by ELISA; assay type: functional
RAW264.7 [12] = experiment: Anti-atherosclerotic activity in mouse RAW264.7 cells assessed as decrease in ox-LDL induced NFkappaB protein expression at 10 to 50 uM preincubated for 10 mins followed by ox-LDL stimulation and measured after 24 hrs by Western blot analysis; assay type: functional, cell-based; details: dose microM 10-50, time 10.0 min
HUVEC [13] = experiment: Cytotoxicity against human HUVEC cells assessed as reduction in cell viability after 48 hrs by MTT assay; assay type: cell-based
RAW264.7 [14] = experiment: Antioxidant activity in mouse RAW264.7 cells assessed as reduction in ox-LDL-induced oxidative stress by measuring increase in SOD level at 50 uM preincubated for 10 mins followed by ox-LDL stimulation and measured after 24 hrs relative to control; assay type: functional; set-up: scale not given: the % may be the effect or the level left
RAW264.7 [15] = experiment: Inhibition of macrophage foam cell formation in mouse RAW264.7 cells assessed as reduction in ox-LDL induced red lipid droplets formation preincubated for 10 mins followed by ox-LDL stimulation and measured after 24 hrs by oil red O staining based inverted microscopy analysis; assay type: functional; details: dose microM 10-50, time 10.0 min
[16] = Prodrug release in phosphate buffer containing L-cysteine assessed as H2S release by measuring H2S releasing half-life at 60 uM by methylene blue method; assay type: ADME
RAW264.7 [17] = experiment: Anti-inflammatory activity in mouse RAW264.7 cells assessed as decrease in ox-LDL induced inflammatory reaction by measuring increase in IL-10 production preincubated for 10 mins followed by ox-LDL stimulation and measured after 24 hrs; assay type: functional, cell-based; details: dose microM 10-50, time 10.0 min
HUVEC [18] = experiment: Anti-atherosclerotic activity against ox-LDL induced apoptosis in human HUVEC cells assessed as reduction in Bax expression at 10 to 50 uM preincubated for 10 mins followed by ox-LDL stimulation and measured after 24 hrs by ELISA; assay type: functional, cell-based; details: dose microM 10-50, time 10.0 min
RAW264.7 [19] = experiment: Anti-atherosclerotic activity in mouse RAW264.7 cells assessed as decrease in ox-LDL induced intracellular lipid accumulation by measuring reduction in CE/TC ratio at 50 uM preincubated for 10 mins followed by ox-LDL stimulation and measured after 24 hrs by colorimetric method relative to control; assay type: functional; details: RAW264.7, 10 min
RAW264.7 [20] = experiment: Antioxidant activity in mouse RAW264.7 cells assessed as reduction in ox-LDL induced oxidative stress by measuring decrease in MDA level at 50 uM preincubated for 10 mins followed by ox-LDL stimulation and measured after 24 hrs relative to control; assay type: functional; details: RAW264.7, 10 min
HUVEC [21] = experiment: Anti-atherosclerotic activity against ox-LDL induced cell damage in human HUVEC cells assessed as reduction in late apoptotic and death cells preincubated for 10 mins followed by ox-LDL stimulation and measured after 24 hrs by PI staining based fluorescence microscopic analysis; assay type: functional
RAW264.7 [22] = experiment: Anti-atherosclerotic activity in mouse RAW264.7 cells assessed as decrease in ox-LDL induced PI3K protein expression at 10 to 50 uM preincubated for 10 mins followed by ox-LDL stimulation and measured after 24 hrs by Western blot analysis; assay type: functional, cell-based; details: dose microM 10-50, time 10.0 min
RAW264.7 [23] = experiment: Antioxidant activity in mouse RAW264.7 cells assessed as reduction in ox-LDL induced ROS accumulation at 10 to 50 uM preincubated for 10 mins followed by ox-LDL stimulation and measured after 24 hrs by DCFH-DA staining based fluorescence microscopic analysis; assay type: functional, cell-based; details: dose microM 10-50, time 10.0 min
HUVEC [24] = experiment: Cytoprotective activity against ox-LDL induced cell damage in human HUVEC cells assessed as increase in cell viability at 50 uM preincubated for 10 mins followed by ox-LDL stimulation measured after 24 hrs by MTT assay; assay type: functional, cell-based
HUVEC [25] = experiment: Cytoprotective activity against ox-LDL induced cell damage in human HUVEC cells assessed as cell viability at 100 uM preincubated for 10 mins followed by ox-LDL stimulation measured after 24 hrs by MTT assay (reference value: 73.1%); assay type: functional; details: read-out: Activity
RAW264.7 [26] = experiment: Inhibition of macrophage foam cell formation in mouse RAW264.7 cells assessed as reduction in ox-LDL induced red lipid droplets formation at 50 uM preincubated for 10 mins followed by ox-LDL stimulation and measured after 24 hrs by oil red O staining based inverted microscopy analysis; assay type: functional
H9c2 = experiment: Cytotoxicity against rat H9c2 cells assessed as reduction in cell viability after 48 hrs by MTT assay; assay type: cell-based; details: H9c2, 48 h
RAW264.7 [27] = experiment: Anti-atherosclerotic activity in mouse RAW264.7 cells assessed as decrease in ox-LDL induced AKT protein expression at 10 to 50 uM preincubated for 10 mins followed by ox-LDL stimulation and measured after 24 hrs by Western blot analysis; assay type: functional, cell-based; details: dose microM 10-50, time 10.0 min
HUVEC [28] = experiment: Cytotoxicity against human HUVEC cells assessed as reduction in cell viability at 10 to 100 uM by MTT assay; assay type: cell-based; details: dose 10-100 µM
RAW264.7 [29] = experiment: Anti-inflammatory activity in mouse RAW264.7 cells assessed as decrease in ox-LDL induced inflammatory reaction by measuring decrease in TNF-alpha production preincubated for 10 mins followed by ox-LDL stimulation and measured after 24 hrs; assay type: functional, cell-based; details: dose microM 10-50, time 10.0 min
RAW264.7 [30] = experiment: Cytotoxicity against mouse RAW264.7 cells assessed as reduction in cell viability after 48 hrs by MTT assay; assay type: cell-based; details: RAW264.7, 48 h
HUVEC [31] = experiment: Anti-atherosclerotic activity against ox-LDL induced cell damage in human HUVEC cells assessed as reduction in nuclear pyknosis and apoptotic bodies formation preincubated for 10 mins followed by ox-LDL stimulation and measured after 24 hrs by Hoechst 33342 staining based fluorescence microscopy; assay type: functional
HUVEC [32] = experiment: Cytoprotective activity against ox-LDL induced cell damage in human HUVEC cells assessed as increase in cell viability at 50 to 100 uM preincubated for 10 mins followed by ox-LDL stimulation measured after 24 hrs by MTT assay; assay type: functional, cell-based; details: dose microM 50-100, time 10.0 min
RAW264.7 [33] = experiment: Anti-atherosclerotic activity in mouse RAW264.7 cells assessed as decrease in ox-LDL induced intracellular lipid accumulation by measuring reduction in total cholesterol level at 50 uM preincubated for 10 mins followed by ox-LDL stimulation and measured after 24 hrs by colorimetric method relative to control; assay type: functional; details: RAW264.7, 10 min
RAW264.7 [34] = experiment: Anti-atherosclerotic activity in mouse RAW264.7 cells assessed as decrease in ox-LDL induced intracellular lipid accumulation by measuring reduction in free cholesterol level at 50 uM preincubated for 10 mins followed by ox-LDL stimulation and measured after 24 hrs by colorimetric method relative to control; assay type: functional; details: RAW264.7, 10 min

Structure (SMILES) | Activity (RAW264.7 [1]) | Activity (RAW264.7 [2]) | Activity (RAW264.7 [3]) | inhibition (RAW264.7 [4]) | Activity (RAW264.7 [5]) | Activity (RAW264.7 [6]) | Activity (RAW264.7 [7]) | Activity (RAW264.7 [8]) | IC50 (WI-38) | Activity (HUVEC [9]) | Activity (HUVEC [10]) | Activity (HUVEC [11]) | Activity (RAW264.7 [12]) | IC50 (HUVEC [13]) | Activity (RAW264.7 [14]) | inhibition (RAW264.7 [15]) | t1/2 [16] | IC50 (H9c2) | Activity (HUVEC [28]) | IC50 (RAW264.7 [30]) | other results
O=C(O)c1cccnc1 | inactive | inactive | inactive | Active | Active | Active | Active | Active |  |  |  |  |  |  |  |  |  |  |  |  | 
O=C(CCCCC1CCSS1)OCCCOC(=O)c1cccnc1 (centres undefined) |  |  |  |  |  | Active |  | Active | > 800 µM | Active | Active | 32.7% | Active | > 800 µM | 48.3% | Dose-dependent effect | 15.3 min | > 800 µM | Non-Toxic | > 800 µM | Activity (RAW264.7 [17]): Dose-dependent effect; Activity (HUVEC [18]): Active; inhibition at 50 µM (RAW264.7 [19]): 32.4%; inhibition at 50 µM (RAW264.7 [20]): 47%; Activity (HUVEC [21]): Active; Activity (RAW264.7 [22]): Active; Activity (RAW264.7 [23]): Active; Activity (HUVEC [24]): Active; viability at 100 µM (HUVEC [25]): 85.9%; inhibition (RAW264.7 [26]): Active; Activity (RAW264.7 [27]): Active; Activity (RAW264.7 [29]): Dose-dependent effect; Activity (HUVEC [31]): Active
O=C(NCCOC(=S)Nc1ccc([N+](=O)[O-])cc1Cl)c1cccnc1 |  |  |  |  |  |  |  |  | > 800 µM |  |  |  |  | 701 µM |  |  | 2.1 min | > 800 µM | Non-Toxic | > 800 µM | Activity (HUVEC [32]): Active
CC(C)(Oc1ccc(Cl)cc1)C(=O)OCCCOC(=O)CCCCC1CCSS1 (centres undefined) |  |  |  |  |  |  |  |  | > 800 µM | Active | Active | 31.9% | Active | > 800 µM | 45.4% | Dose-dependent effect | 21.3 min | > 800 µM | Non-Toxic | > 800 µM | inhibition at 50 µM (RAW264.7 [33]): 52.4%; Activity (RAW264.7 [17]): Dose-dependent effect; Activity (HUVEC [18]): Active; inhibition at 50 µM (RAW264.7 [19]): 30.9%; inhibition at 50 µM (RAW264.7 [20]): 41%; Activity (HUVEC [21]): Active; Activity (RAW264.7 [22]): Active; Activity (RAW264.7 [23]): Active; Activity (HUVEC [24]): Active; viability at 100 µM (HUVEC [25]): 89.2%; inhibition (RAW264.7 [26]): Active; Activity (RAW264.7 [27]): Active; Activity (RAW264.7 [29]): Dose-dependent effect; Activity (HUVEC [31]): Active; inhibition at 50 µM (RAW264.7 [34]): 25.4%
CCOC(=O)C(C)(C)Oc1ccc(Cl)cc1 | inactive | inactive | inactive | Active | Active | Active | Active | Active |  |  |  |  |  |  |  |  |  |  |  |  | 
CC(C)(Oc1ccc(Cl)cc1)C(=O)NCCOC(=S)Nc1ccc([N+](=O)[O-])cc1Cl |  |  |  |  |  |  |  |  | > 800 µM |  |  |  |  | 729 µM |  |  | 1.7 min | > 800 µM | Non-Toxic | > 800 µM | Activity (HUVEC [32]): Active
